Measured values taken from the CheMixHub viscosity set.

Assay: xn = mol fraction of the nth substance listed

O=C1CCCC1 + CCCCO
303.15 K, 101 kPa
Conditions | viscosity [mPa·s]
x1 = 0.101 | 1.725
x1 = 0.2614 | 1.339
x1 = 0.4183 | 1.143
x1 = 0.5813 | 1.026
x1 = 0.7417 | 0.974
x1 = 0.899 | 0.959

NC1CCCCC1 + CCCCOC(C)=O
298.15 K, 101 kPa
Conditions | viscosity [mPa·s]
x1 = 0.1151 | 0.6149
x1 = 0.2265 | 0.6836
x1 = 0.3342 | 0.8301
x1 = 0.4385 | 1.032
x1 = 0.5394 | 1.253
x1 = 0.6373 | 1.455
x1 = 0.7321 | 1.618
x1 = 0.8241 | 1.734
x1 = 0.9134 | 1.779

O=C1CCCC1 + CCCCOC(C)=O
viscosity [mPa·s], 101 kPa
Conditions | x2 = 0.0703 | x2 = 0.1461 | x2 = 0.2264 | x2 = 0.3112 | x2 = 0.4036 | x2 = 0.4995 | x2 = 0.6079 | x2 = 0.7264 | x2 = 0.8541
298.15 K | 1.044 | 1 | 0.957 | 0.913 | 0.867 | 0.826 | 0.785 | 0.749 | 0.714
303.15 K | 0.961 | 0.921 | 0.881 | 0.84 | 0.797 | 0.758 | 0.72 | 0.686 | 0.654
308.15 K | 0.892 | 0.856 | 0.82 | 0.783 | 0.746 | 0.71 | 0.676 | 0.645 | 0.618
313.15 K | 0.835 | 0.8 | 0.766 | 0.732 | 0.697 | 0.662 | 0.63 | 0.6 | 0.575

ClC=C(Cl)Cl + CCCCOCCO
viscosity [mPa·s], 101.33 kPa
Conditions | x1 = 0.1147 | x1 = 0.2158 | x1 = 0.3119 | x1 = 0.4264 | x1 = 0.5157 | x1 = 0.6108 | x1 = 0.687 | x1 = 0.8076 | x1 = 0.9043
303.15 K | 2.11 | 1.821 | 1.568 | 1.297 | 1.111 | 0.937 | 0.817 | 0.671 | 0.582
313.15 K | 1.646 | 1.451 | 1.271 | 1.074 | 0.934 | 0.806 | 0.718 | 0.608 | 0.537

NC1CCCCC1 + CCCCOCCO
298.15 K, 101 kPa
Conditions | viscosity [mPa·s]
x1 = 0.1169 | 2.872
x1 = 0.2295 | 3.006
x1 = 0.338 | 3.059
x1 = 0.4427 | 3.069
x1 = 0.5437 | 3.011
x1 = 0.6412 | 2.872
x1 = 0.7355 | 2.697
x1 = 0.8266 | 2.447
x1 = 0.9147 | 2.09

ClC=C(Cl)Cl + CCCCOCCOCCO
298.15 K, 101.33 kPa
Conditions | viscosity [mPa·s]
x1 = 0.0171 | 5.12
x2 = 0.0067 | 0.539
x2 = 0.0185 | 0.56
x2 = 0.0282 | 0.577
x2 = 0.0462 | 0.609
x2 = 0.0623 | 0.643
x2 = 0.0798 | 0.68
x2 = 0.0916 | 0.708
x2 = 0.1239 | 0.784
x2 = 0.1624 | 0.89
x2 = 0.2002 | 0.999
x2 = 0.231 | 1.097
x2 = 0.268 | 1.224
x2 = 0.2998 | 1.339
x2 = 0.3306 | 1.46
x2 = 0.3622 | 1.598
x2 = 0.4019 | 1.789
x2 = 0.4263 | 1.914
x2 = 0.4614 | 2.087
x2 = 0.5031 | 2.305
x2 = 0.54 | 2.492
x2 = 0.6007 | 2.81
x2 = 0.6745 | 3.232
x2 = 0.7406 | 3.618
x2 = 0.7898 | 3.928
x2 = 0.8221 | 4.116
x2 = 0.8567 | 4.332
x2 = 0.8875 | 4.525
x2 = 0.9174 | 4.722
x2 = 0.9489 | 4.919
x2 = 0.9678 | 5.031

CCCCC(=O)[O-].CC[NH+](CC)CCO + CCCCn1cc[n+](C)c1.COP(=O)([O-])OC
Conditions | viscosity [mPa·s]
298.15 K, 101 kPa, x1 = 0.1018 | 415.5

CCCCn1cc[n+](C)c1.COP(=O)([O-])OC + CCCCn1cc[n+](C)c1.O=S(=O)([N-]S(=O)(=O)C(F)(F)F)C(F)(F)F
Conditions | viscosity [mPa·s]
298.15 K, 100 kPa, x2 = 0.25 | 432.5

CC(O)CO (stereo not drawn) + CCCO
313 K, 101 kPa
Conditions | viscosity [mPa·s]
x1 = 0.1 | 1.9
x1 = 0.3 | 2.9
x1 = 0.5 | 4.8
x1 = 0.7 | 8.3
x1 = 0.9 | 15

ClC=C(Cl)Cl + CCCO
viscosity [mPa·s]
Conditions | x1 = 0.0848 | x1 = 0.1725 | x2 = 0.024 | x2 = 0.1062 | x2 = 0.253 | x2 = 0.3927 | x2 = 0.5454 | x2 = 0.6998 | x2 = 0.9543
298.15 K, 101.3 kPa | 1.705 | 1.485 | – | – | – | – | – | – | –
303.15 K, 101 kPa | – | – | 0.598 | 0.692 | 0.86 | 1.019 | 1.193 | 1.37 | 1.537
313.15 K, 101 kPa | – | – | 0.55 | 0.617 | 0.735 | 0.848 | 0.97 | 1.095 | 1.219
323.15 K, 101 kPa | – | – | 0.487 | 0.539 | 0.634 | 0.722 | 0.82 | 0.919 | 1.018

NC1CCCCC1 + CCCO
viscosity [mPa·s], 101 kPa
Conditions | 293.15 K | 298.15 K | 303.15 K
x1 = 0.0549 | 2.253 | 2.004 | 1.773
x1 = 0.102 | 2.29 | 2.036 | 1.803
x1 = 0.1983 | 2.392 | 2.12 | 1.871
x1 = 0.3117 | 2.512 | 2.213 | 1.946
x1 = 0.3529 | 2.548 | 2.241 | 1.968
x1 = 0.4031 | 2.578 | 2.266 | 1.985
x1 = 0.4387 | 2.588 | 2.274 | 1.996
x1 = 0.4926 | 2.589 | 2.271 | 1.999
x1 = 0.5491 | 2.568 | 2.261 | 1.992
x1 = 0.6111 | 2.534 | 2.229 | 1.964
x1 = 0.6604 | 2.485 | 2.19 | 1.928
x1 = 0.704 | 2.454 | 2.168 | 1.91
x1 = 0.7984 | 2.349 | 2.078 | 1.837
x1 = 0.8844 | 2.241 | 1.991 | 1.766
x1 = 0.9389 | 2.197 | 1.955 | 1.735

O=C1CCCC1 + CCCO
303.15 K, 101 kPa
Conditions | viscosity [mPa·s]
x1 = 0.1001 | 1.333
x1 = 0.2566 | 1.091
x1 = 0.4203 | 0.974
x1 = 0.5821 | 0.922
x1 = 0.7382 | 0.915
x1 = 0.8967 | 0.935

ClC=C(Cl)Cl + CCO
viscosity [mPa·s], 101.33 kPa
Conditions | x2 = 0.15 | x2 = 0.3 | x2 = 0.45 | x2 = 0.6 | x2 = 0.75 | x2 = 0.9
293.15 K | 0.6368 | 0.7027 | 0.7685 | 0.8344 | 0.9003 | 0.9601
303.15 K | 0.59 | 0.6477 | 0.7071 | 0.765 | 0.8177 | 0.8581
313.15 K | 0.521 | 0.569 | 0.6186 | 0.6692 | 0.7193 | 0.7593
